ChEMBL document CHEMBL5385887, “Discovery of Sibiriline derivatives as novel receptor-interacting protein kinase 1 inhibitors” (Eur J Med Chem, 2023)
pEC50, pIC50: −log10 of the molar value. Active and inactive are the calls of the source. No cut-off for these calls is given here.

Assays:
HT-29 [1] = experiment: Anti-necroptosis activity against TSZ-induced human HT-29 cell necroptosis model assessed as cell viability pretreated with compound for 1 hr followed by treated with TSZ for 12 hrs; assay type: functional, cell-based; conditions: dose 0.039-10 µM, time 13.0 hrs
[2] = molecular target: T1, Receptor-interacting serine/threonine-protein kinase 1 (Homo sapiens, UniProt Q13546); experiment: Inhibition of RIPK1 (unknown origin) using MBP substrate incubated for 2 hrs by ADP-Glo kinase function assay
T1 sequence (Q13546 whole entry): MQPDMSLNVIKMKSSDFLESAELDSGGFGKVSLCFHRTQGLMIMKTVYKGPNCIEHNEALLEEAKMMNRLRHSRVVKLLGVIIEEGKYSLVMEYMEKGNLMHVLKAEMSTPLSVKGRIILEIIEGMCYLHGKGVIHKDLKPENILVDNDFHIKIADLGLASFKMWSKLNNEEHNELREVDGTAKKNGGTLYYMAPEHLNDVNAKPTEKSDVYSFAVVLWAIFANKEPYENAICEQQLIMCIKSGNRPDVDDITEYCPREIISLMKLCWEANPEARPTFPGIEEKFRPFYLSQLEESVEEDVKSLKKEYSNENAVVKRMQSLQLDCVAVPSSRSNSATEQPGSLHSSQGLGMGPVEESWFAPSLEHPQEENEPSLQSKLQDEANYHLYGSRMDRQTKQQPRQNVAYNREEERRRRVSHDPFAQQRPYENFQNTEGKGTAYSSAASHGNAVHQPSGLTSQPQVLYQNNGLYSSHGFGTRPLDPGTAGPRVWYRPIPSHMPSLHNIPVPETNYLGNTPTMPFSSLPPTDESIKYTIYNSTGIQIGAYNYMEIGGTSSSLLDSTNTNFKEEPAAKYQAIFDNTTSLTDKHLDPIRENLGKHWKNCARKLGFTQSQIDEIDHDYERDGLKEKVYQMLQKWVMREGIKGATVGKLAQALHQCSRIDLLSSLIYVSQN

[3] = molecular target: T2, Receptor-interacting serine/threonine-protein kinase 1 (Mus musculus) (UniProt Q60855); experiment: Inhibition of RIPK1 phosphorylation in mouse L929 cells at 250 nM by Western blotting analysis; assay type: cell-based; conditions: time 0.5-2.5 hrs, TDE = time-dependent effect
T2 sequence (whole entry): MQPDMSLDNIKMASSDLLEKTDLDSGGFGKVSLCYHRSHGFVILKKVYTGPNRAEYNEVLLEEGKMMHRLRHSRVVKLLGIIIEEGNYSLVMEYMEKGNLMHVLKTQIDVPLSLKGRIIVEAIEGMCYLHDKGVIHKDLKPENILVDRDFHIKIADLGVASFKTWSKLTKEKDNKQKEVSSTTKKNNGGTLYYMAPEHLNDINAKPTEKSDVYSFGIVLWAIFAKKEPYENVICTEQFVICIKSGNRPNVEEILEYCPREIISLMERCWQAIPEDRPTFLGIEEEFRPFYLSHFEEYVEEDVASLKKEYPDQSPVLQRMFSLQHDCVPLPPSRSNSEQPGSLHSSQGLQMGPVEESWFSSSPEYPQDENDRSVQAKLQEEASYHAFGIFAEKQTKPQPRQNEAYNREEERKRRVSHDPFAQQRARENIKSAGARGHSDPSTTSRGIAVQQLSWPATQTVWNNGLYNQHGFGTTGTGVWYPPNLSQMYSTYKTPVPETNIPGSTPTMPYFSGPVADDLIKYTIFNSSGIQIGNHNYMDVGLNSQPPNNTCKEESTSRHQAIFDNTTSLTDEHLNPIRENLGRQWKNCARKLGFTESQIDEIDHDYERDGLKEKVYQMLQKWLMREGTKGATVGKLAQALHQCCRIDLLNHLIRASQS

L929 [4] = experiment: Anti-necroptosis activity against TNFalpha/z-VAD-fmk-induced mouse L929 cell necroptosis model assessed as cell viability pretreated with compound for 1 hr followed by treated with TZ for 6 hrs; assay type: functional, cell-based
[5] = molecular target: T3, Mixed lineage kinase domain-like protein (Mus musculus) (UniProt Q9D2Y4); experiment: Inhibition of MLKL phosphorylation in mouse L929 cells at 250 nM incubated for 0.5 to 2.5 hrs by Western blotting analysis; assay type: cell-based; conditions: time 0.5-2.5 hrs
T3 sequence (whole entry): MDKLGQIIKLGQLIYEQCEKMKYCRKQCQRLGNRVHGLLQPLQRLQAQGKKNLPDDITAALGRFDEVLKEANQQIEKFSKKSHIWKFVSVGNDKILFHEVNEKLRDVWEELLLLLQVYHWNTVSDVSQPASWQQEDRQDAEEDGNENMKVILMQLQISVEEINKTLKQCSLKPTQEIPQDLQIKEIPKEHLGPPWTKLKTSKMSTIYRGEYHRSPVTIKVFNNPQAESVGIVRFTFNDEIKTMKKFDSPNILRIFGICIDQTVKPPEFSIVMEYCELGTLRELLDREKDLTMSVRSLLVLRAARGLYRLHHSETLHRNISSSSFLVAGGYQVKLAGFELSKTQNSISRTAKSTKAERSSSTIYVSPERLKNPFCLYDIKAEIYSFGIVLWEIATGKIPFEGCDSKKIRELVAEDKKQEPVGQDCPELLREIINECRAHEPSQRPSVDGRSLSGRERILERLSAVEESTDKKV

Mus musculus [6] = experiment: (§1) In vivo anti-necroptotic effect in TNFalpha-induced systemic inflammatory response syndrome C57BL/6J mouse model assessed as reduction in hypothermic injury by measuring increase in survival at 10 mg/kg, ip followed by compound treatment after 1 hr injected moue TNFalpha and measured continuously upto 72 hrs; assay type: functional; conditions: time 73 hrs
Mus musculus [7] = experiment: as §1, with “25” for “10”; assay type: functional; conditions: time 73 hrs
[8] = molecular target: Receptor-interacting serine/threonine-protein kinase 3 (Mus musculus) (UniProt Q9QZL0); experiment: Inhibition of RIPK3 phosphorylation in mouse L929 cells at 250 nM by Western blotting analysis; assay type: cell-based; conditions: time 0.5-2.5 hrs, TDE = time-dependent effect
Chain of Receptor-interacting serine/threonine-protein kinase 3 (Mus musculus) (Q9QZL0 whole entry): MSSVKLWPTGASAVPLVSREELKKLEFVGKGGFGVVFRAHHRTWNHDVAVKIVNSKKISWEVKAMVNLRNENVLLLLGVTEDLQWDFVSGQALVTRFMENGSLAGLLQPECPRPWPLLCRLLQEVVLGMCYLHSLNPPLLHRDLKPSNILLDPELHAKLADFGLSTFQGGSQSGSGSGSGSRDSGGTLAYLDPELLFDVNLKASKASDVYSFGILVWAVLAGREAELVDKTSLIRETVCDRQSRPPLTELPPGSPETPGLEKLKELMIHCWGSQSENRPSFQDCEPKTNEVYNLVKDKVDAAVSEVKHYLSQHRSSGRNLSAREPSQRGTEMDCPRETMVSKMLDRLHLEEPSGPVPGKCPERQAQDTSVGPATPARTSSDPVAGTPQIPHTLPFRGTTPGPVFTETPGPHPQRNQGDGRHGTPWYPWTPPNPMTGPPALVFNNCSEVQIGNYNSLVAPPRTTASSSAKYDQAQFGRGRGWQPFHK

U-937 = experiment: Anti-necroptosis activity against TSZ-induced human U937 cell necroptosis model assessed as cell viability pretreated with compound for 1 hr followed by treated with TSZ for 12 hrs; assay type: functional, cell-based; conditions: dose 0.039-10 µM, time 13.0 hrs
Mus musculus [9] = experiment: In vivo anti-necroptotic effect in TNFalpha-induced systemic inflammatory response syndrome C57BL/6J mouse model assessed as reduction in hypothermic injury at 10 to 40 mg/kg, ip followed by compound treatment after 1 hr injected moue TNFalpha and measured continuously upto 72 hrs; assay type: functional, organism-based; conditions: dose 10-40 mg/kg, time 73.0 hrs
[10] = Cytotoxicity against mouse L929 cells by CCK-8 assay; assay type: toxicity, cell-based
Mus musculus [11] = experiment: as §1, with “40” for “10”; assay type: functional; conditions: time 73 hrs
HT-29 [12] = experiment: Anti-necroptosis activity against TS-induced human HT-29 cell necroptosis model assessed as cell viability at 0.039 to 10 uM pretreated with compound for 1 hr followed by treated with TS for 12 hrs; assay type: functional, cell-based; conditions: dose 0.039-10 µM
L929 [13] = experiment: Anti-necroptosis activity against TNFalpha/z-VAD-fmk-induced mouse L929 cell necroptosis model assessed as increase in viable cells pretreated with compound for 1 hr followed by treated with TZ for 6 hrs by Hoechst 33342/PI staining based flow cytometric analysis; assay type: functional; conditions: time 7.0 hrs
L929 [14] = experiment: Anti-necroptosis activity against TNFalpha/z-VAD-fmk-induced mouse L929 cell necroptosis model assessed as prevention of necroptosis pretreated with compound for 1 hr followed by treated with TZ for 6 hrs by Hoechst 33342/PI staining based flow cytometric analysis; assay type: functional; conditions: dose 10-250 nmol/L, time 7.0 hrs

Structure (SMILES): O=C(c1ccc(-c2cc3cccnc3[nH]2)cc1)N1CCOCC1
- Activity (HT-29 [1]): Dose-Dependent Effect
- pIC50 [2]: 7.06
- inhibition [3]: Tde
- pEC50 (L929 [4]): 7.25
- inhibition [5]: Active
- survival at 10 mg/kg (Mus musculus [6]): 75%
- survival at 25 mg/kg (Mus musculus [7]): 100%
- inhibition [8]: Tde
- Activity (U-937): Dose-Dependent Effect
- Activity (Mus musculus [9]): Active
- CC50 [10]: > 50000 nM
- survival at 40 mg/kg (Mus musculus [11]): 100%
- Activity (HT-29 [12]): inactive
- Activity (L929 [13]): Active
- Activity (L929 [14]): Dose-Dependent Effect
